In patent publication US20170008888A1 (KYORIN PHARMACEUTICAL CO., LTD., priority 2014, published 2017):
Where two headings read alike, the source gives them in different places.

Key:
Assay type in all cases: binding
AurB or AurC = assay: Probe-based (AX9989) kinase profiling in Jurkat lysate: AurB or AurC; conditions: for Kinase inhibition % at indicated screening concentration: AurB or AurC: screening concentration 1.0 μM
Experimental: (§1) In this example, potency of the compounds as ERK5 inhibitors was assessed, and the compounds were screened for activity against several kinases in Jurkat cells.
(§2) Jurkat cell pellets were resuspended in four volumes of lysis buffer (50 mM HEPES pH 7.5, 150 mM NaCl, 0.1% Triton-X-100, 1% v/v phosphatase, inhibitor cocktail II [EMD/Calbiochem, #524625]), sonicated using a tip, sonicator, and Dounce homogenized. Lysate was cleared by centrifugation, at 16,000 g for 15 min., was gel filtered (BioRad 10DG) and MnCl2 was then added to a final concentration of 20 mM before treatment with the test compound and probe labeling. […] All compound treatments were performed at room temperature.
(§3) Acyl phosphate ATP probe (AX9989) labeling reactions were performed at room temperature with a final probe concentration of 5 μM after a 15 min pre-incubation of lysate with a test compound. All reactions were performed in duplicate, using 445 μl/sample at 5 mg/ml. Probe-labeled lysates were denatured and reduced (6 M urea, 10 mM DTT, 65° C., 15 min), alkylated (40 mM iodoacetamide, 37° C., 30 min, and gel filtered (Sephadex G25) into 10 mM ammonium bicarbonate, 2 M urea, 5 mM methionine. The desalted protein mixture was digested with trypsin (0.015 mg/ml) for 1 hr at 37° C., and desthiobiotinylated peptides were captured using a […] high-capacity streptavidin resin (Thermo Scientific). Captured peptides were then washed extensively using 150 μl/wash with three different wash buffers: (A) 3 times with 1% triton, 0.5% tergitol, 1 mM EDTA in PBS; (B) 18 times with PBS; and (C) 8 times with HPLC grade water. Peptides were eluted from the streptavidin beads using two 35-μL washes of a 50% CH3CN/water mixture containing 0.1% TFA at room temperature.
(§4) Kinase active site peptides were identified and quantified using LC/MS. Percent inhibition was calculated as the normalized decrease in the ESI-MS fragment intensities of probe-labeled peptides in samples incubated with the test compound compared to those without.

JAK1 = target: T1, JAK1 (Homo sapiens, UniProt P23458); assay: Probe-based (AX9989) kinase profiling in Jurkat lysate: JAK1
T1 construct: screened for activity against several kinases in Jurkat cells; endogenous in cells; host or cells: Jurkat cell lysate
T1 sequence (P23458 whole entry): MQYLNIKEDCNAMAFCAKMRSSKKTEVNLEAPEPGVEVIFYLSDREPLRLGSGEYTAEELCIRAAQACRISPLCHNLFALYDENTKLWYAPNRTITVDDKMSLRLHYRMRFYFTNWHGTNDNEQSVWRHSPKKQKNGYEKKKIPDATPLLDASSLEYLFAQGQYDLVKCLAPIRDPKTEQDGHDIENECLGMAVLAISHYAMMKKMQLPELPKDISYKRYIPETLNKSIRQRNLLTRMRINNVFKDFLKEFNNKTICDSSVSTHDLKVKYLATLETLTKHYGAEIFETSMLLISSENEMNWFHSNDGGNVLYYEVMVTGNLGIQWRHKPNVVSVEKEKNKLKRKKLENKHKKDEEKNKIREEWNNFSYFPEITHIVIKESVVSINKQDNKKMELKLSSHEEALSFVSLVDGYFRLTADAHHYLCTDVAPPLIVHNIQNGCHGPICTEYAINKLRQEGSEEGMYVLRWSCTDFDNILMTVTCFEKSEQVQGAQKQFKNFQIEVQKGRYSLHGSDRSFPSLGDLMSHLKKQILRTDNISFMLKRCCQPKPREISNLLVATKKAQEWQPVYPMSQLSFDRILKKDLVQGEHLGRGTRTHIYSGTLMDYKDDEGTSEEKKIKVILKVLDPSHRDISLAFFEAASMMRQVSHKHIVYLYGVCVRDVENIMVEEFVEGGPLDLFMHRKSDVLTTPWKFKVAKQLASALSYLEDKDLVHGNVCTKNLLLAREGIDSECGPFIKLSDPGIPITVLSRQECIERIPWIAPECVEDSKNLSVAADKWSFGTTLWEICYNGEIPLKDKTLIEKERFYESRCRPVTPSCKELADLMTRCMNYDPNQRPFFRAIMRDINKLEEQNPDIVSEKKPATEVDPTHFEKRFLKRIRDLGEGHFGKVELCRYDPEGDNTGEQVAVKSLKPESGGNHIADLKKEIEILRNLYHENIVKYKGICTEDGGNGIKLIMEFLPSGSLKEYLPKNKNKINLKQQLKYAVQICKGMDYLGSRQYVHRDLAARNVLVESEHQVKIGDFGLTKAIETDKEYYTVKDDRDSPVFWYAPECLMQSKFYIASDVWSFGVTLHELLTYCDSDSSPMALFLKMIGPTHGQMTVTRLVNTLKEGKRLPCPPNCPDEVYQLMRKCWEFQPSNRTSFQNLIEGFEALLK
Experimental: as §1, §2, §3, §4

TAO2 = target: T2, TAO2 (Homo sapiens, UniProt Q9UL54); assay: Probe-based (AX9989) kinase profiling in Jurkat lysate: TAO2
T2 construct: screened for activity against several kinases in Jurkat cells; endogenous in cells; host or cells: Jurkat cell lysate
T2 sequence (Q9UL54 1-1235): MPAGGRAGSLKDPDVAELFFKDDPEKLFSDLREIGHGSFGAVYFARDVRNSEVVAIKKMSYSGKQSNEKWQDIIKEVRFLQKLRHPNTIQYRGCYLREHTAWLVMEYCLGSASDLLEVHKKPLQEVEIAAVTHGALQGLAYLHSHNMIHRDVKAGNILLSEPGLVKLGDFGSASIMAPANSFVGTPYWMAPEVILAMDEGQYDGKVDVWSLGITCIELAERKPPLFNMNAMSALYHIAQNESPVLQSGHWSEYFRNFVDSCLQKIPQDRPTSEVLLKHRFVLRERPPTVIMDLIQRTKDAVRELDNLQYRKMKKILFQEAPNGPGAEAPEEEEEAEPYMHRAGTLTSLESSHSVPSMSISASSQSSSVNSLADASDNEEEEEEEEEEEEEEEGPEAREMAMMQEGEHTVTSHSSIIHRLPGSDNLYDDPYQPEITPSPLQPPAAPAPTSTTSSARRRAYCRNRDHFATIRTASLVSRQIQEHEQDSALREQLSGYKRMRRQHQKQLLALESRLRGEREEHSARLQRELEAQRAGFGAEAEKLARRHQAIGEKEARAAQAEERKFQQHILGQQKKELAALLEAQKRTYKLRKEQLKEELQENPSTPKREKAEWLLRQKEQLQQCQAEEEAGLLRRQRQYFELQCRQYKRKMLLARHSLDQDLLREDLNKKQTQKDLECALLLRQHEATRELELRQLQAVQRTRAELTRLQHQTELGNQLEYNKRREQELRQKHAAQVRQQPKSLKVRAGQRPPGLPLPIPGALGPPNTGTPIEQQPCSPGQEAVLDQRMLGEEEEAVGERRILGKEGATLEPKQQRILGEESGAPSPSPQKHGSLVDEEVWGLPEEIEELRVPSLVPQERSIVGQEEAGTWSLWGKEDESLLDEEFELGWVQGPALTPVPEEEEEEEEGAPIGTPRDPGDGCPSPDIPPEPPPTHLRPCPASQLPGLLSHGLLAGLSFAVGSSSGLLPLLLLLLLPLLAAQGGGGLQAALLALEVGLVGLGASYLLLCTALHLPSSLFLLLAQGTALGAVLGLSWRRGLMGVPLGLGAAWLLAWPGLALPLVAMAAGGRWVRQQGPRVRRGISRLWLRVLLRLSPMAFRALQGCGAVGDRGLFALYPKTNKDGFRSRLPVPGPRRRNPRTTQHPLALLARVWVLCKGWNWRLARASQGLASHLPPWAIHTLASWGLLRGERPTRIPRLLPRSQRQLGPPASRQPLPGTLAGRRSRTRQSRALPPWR
Experimental: as §1, §2, §3, §4

AurA = target: T3, AurA (Homo sapiens, UniProt O14965); assay: Probe-based (AX9989) kinase profiling in Jurkat lysate: AurA
T3 construct: screened for activity against several kinases in Jurkat cells; endogenous in cells; host or cells: Jurkat cell lysate
T3 sequence (O14965 1-403): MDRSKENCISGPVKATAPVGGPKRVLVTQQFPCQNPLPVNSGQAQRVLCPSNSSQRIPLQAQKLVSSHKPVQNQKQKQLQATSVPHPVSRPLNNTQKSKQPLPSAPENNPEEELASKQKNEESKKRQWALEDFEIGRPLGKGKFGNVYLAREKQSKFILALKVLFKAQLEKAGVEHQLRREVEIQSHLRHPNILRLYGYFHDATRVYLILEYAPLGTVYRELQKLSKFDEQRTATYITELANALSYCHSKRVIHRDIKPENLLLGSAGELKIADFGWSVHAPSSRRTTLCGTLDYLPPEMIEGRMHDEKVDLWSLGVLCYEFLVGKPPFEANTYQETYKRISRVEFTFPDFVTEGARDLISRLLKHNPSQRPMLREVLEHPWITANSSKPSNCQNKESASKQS
Experimental: as §1, §2, §3, §4

ACK = target: T4, ACK (Homo sapiens, UniProt Q07912); assay: Probe-based (AX9989) kinase profiling in Jurkat lysate: ACK
T4 construct: screened for activity against several kinases in Jurkat cells; endogenous in cells; host or cells: Jurkat cell lysate
T4 sequence (Q07912 whole entry): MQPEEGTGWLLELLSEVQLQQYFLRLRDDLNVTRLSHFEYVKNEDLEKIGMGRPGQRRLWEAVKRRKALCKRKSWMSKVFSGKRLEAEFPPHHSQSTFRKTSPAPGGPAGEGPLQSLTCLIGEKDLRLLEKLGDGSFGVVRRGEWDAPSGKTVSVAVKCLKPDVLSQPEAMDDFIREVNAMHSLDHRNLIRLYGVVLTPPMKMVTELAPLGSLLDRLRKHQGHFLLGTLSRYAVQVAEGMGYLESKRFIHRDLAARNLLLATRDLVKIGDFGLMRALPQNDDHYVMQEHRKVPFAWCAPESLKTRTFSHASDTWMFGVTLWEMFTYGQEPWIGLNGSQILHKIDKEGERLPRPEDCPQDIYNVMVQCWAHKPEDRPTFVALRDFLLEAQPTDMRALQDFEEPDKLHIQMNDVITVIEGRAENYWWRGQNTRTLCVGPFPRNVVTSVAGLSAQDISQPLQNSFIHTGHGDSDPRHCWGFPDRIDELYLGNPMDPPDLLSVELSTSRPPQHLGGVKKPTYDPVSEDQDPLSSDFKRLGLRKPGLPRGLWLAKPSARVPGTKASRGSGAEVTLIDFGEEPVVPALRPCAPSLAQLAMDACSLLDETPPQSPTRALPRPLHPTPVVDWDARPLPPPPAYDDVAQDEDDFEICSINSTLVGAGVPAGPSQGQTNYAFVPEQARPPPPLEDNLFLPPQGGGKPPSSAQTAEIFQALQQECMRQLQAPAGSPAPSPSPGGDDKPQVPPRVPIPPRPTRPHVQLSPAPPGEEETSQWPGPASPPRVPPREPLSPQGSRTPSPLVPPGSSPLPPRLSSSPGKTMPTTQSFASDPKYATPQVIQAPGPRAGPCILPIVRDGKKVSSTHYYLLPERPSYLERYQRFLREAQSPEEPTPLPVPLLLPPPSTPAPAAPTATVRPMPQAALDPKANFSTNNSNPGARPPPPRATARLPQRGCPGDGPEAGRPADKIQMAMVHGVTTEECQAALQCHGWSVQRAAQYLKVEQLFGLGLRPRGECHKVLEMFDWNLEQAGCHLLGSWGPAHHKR
Experimental: as §1, §2, §3, §4

AMPKa1 or AMPKa2 = assay: Probe-based (AX9989) kinase profiling in Jurkat lysate: AMPKa1 or AMPKa2; conditions: for Kinase inhibition % at indicated screening concentration: AMPKa1 or AMPKa2: screening concentration 1.0 μM
Experimental: as §1, §2, §3, §4

ERK5 = target: T5, ERK5 (Homo sapiens, UniProt Q13164); assay: Probe-based (AX9989 acyl phosphate ATP probe) kinase profiling in Jurkat lysate: ERK5; conditions: for IC50: Jurkat lysate
T5 construct: screened for activity against several kinases in Jurkat cells; endogenous in cells; host or cells: Jurkat cell lysate
T5 sequence (Q13164 whole entry): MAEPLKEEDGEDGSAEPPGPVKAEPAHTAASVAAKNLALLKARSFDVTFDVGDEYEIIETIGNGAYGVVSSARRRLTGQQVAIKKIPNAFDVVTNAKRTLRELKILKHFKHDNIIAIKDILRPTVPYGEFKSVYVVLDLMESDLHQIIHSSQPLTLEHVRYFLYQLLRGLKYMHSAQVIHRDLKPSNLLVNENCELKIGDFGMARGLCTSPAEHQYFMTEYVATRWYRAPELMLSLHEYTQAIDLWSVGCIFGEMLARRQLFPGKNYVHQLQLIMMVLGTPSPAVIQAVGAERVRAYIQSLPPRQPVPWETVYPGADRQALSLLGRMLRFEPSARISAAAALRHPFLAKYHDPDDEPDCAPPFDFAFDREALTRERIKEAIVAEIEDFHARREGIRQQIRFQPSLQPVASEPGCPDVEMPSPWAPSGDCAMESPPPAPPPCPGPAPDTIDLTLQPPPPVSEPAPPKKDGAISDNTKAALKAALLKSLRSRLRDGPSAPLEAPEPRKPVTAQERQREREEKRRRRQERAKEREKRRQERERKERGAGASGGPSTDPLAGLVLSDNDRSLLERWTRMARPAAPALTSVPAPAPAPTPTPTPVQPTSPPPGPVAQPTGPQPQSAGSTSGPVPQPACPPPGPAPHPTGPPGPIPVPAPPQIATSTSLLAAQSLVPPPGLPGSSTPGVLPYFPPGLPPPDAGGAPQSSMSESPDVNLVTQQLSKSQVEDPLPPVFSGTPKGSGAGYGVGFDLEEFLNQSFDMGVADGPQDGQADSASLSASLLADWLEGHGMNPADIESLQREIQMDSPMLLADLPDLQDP
Experimental: as §1, §2, §3, §4
ERK5 IC50 values were calculated from the percent inhibition and the screening concentration.

ABL or ARG = assay: Probe-based (AX9989) kinase profiling in Jurkat lysate: ABL or ARG; conditions: for Kinase inhibition % at indicated screening concentration: ABL or ARG: screening concentration 1.0 μM
Experimental: as §1, §2, §3, §4

[1] = screening concentration 1 μM, read-out: JAK1 Inhibition % at indicated screening concentration
[2] = screening concentration 1 μM, read-out: TAO2 Inhibition % at indicated screening concentration
[3] = screening concentration 1 μM, read-out: AurA Inhibition % at indicated screening concentration
[4] = screening concentration 1 μM, read-out: ACK Inhibition % at indicated screening concentration
[5] = calculated from percent inhibition and screening concentration, AX9989 probe
[6] = screening concentration 1 μM, read-out: ERK5 Inhibition % at indicated screening concentration
[7] = screening concentration 1.0 μM, read-out: Kinase inhibition % at indicated screening concentration: JAK1
[8] = screening concentration 1.0 μM, read-out: Kinase inhibition % at indicated screening concentration: TAO2
[9] = screening concentration 1.0 μM, read-out: Kinase inhibition % at indicated screening concentration: AurA
[10] = screening concentration 1.0 μM, read-out: Kinase inhibition % at indicated screening concentration: ACK
[11] = calculated from percent inhibition of AX9989 labeling and the screening concentration
[12] = screening concentration 1.0 μM, read-out: Kinase inhibition % at indicated screening concentration: ERK5

Compound	IC50 (ERK5; [5]) [nM]	Kinase inhibition % at indicated screening concentration: AurB or AurC (AurB or AurC)	inhibition at 1 µM (JAK1; [7]) [%]	inhibition at 1 µM (TAO2; [8]) [%]	inhibition at 1 µM (AurA; [9]) [%]	inhibition at 1 µM (ACK; [10]) [%]	Kinase inhibition % at indicated screening concentration: AMPKa1 or AMPKa2 (AMPKa1 or AMPKa2)	IC50 (ERK5; [11]) [nM]	inhibition at 1 µM (ERK5; [12]) [%]	Kinase inhibition % at indicated screening concentration: ABL or ARG (ABL or ARG)	further results
CCOc1cc(C(=O)N2CCOCC2)ccc1Nc1cc2c(cn1)N(C)C(=O)c1ccccc1S2 [Compound T82, 3-((2-ethoxy-4-(morpholine-4-carbonyl)phenyl)amino)-11-methylbenzo[f]pyrido[4,3-b][1,4]thiazepin-10(11H)-one]	101 to 500	–	–	–	–	–	–	–	–	–	AurB or AurC Inhibition % at indicated screening concentration (AurB or AurC; screening concentration 1 μM): E (E is ≦35%); inhibition at 1 µM (JAK1; [1]): ≤ 35%; inhibition at 1 µM (TAO2; [2]): ≤ 35%; inhibition at 1 µM (AurA; [3]): ≤ 35%; inhibition at 1 µM (ACK; [4]): ≤ 35%; AMPKa1 or AMPKa2 Inhibition % at indicated screening concentration (AMPKa1 or AMPKa2; screening concentration 1 μM): E (E is ≦35%); inhibition at 1 µM (ERK5; [6]): 50 to 75%; ABL or ARG Inhibition % at indicated screening concentration (ABL or ARG; screening concentration 1 μM): E (E is ≦35%)
CCOc1cc(C(=O)N2CCN(C3CCN(C)CC3)CC2)ccc1Nc1cc2c(cn1)N(C)C(=O)c1ccccc1N2S(C)(=O)=O [Compound T87]	> 500	–	–	–	–	–	–	–	–	–	AurB or AurC Inhibition % at indicated screening concentration (AurB or AurC; screening concentration 1 μM): E (E is ≦35%); inhibition at 1 µM (JAK1; [1]): ≤ 35%; inhibition at 1 µM (TAO2; [2]): ≤ 35%; inhibition at 1 µM (AurA; [3]): ≤ 35%; inhibition at 1 µM (ACK; [4]): ≤ 35%; AMPKa1 or AMPKa2 Inhibition % at indicated screening concentration (AMPKa1 or AMPKa2; screening concentration 1 μM): E (E is ≦35%); inhibition at 1 µM (ERK5; [6]): 50 to 75%; ABL or ARG Inhibition % at indicated screening concentration (ABL or ARG; screening concentration 1 μM): E (E is ≦35%)
CCOc1cc(C(=O)N2CCOCC2)ccc1Nc1cc2c(cn1)N(C)C(=O)c1ccccc1[S+]2[O-] (stereo not drawn) [Compound T83, 3-((2-ethoxy-4-(morpholine-4-carbonyl)phenyl)amino)-11-methylbenzo[f]pyrido[4,3-b][1,4]thiazepin-10(11H)-one 5-oxide]	> 500	–	–	–	–	–	–	–	–	–	AurB or AurC Inhibition % at indicated screening concentration (AurB or AurC; screening concentration 10 μM): E (E is ≦35%); inhibition at 10 µM (JAK1; screening concentration 10 μM, read-out: JAK1 Inhibition % at indicated screening concentration): ≤ 35%; inhibition at 10 µM (TAO2; screening concentration 10 μM, read-out: TAO2 Inhibition % at indicated screening concentration): ≤ 35%; inhibition at 10 µM (AurA; screening concentration 10 μM, read-out: AurA Inhibition % at indicated screening concentration): ≤ 35%; inhibition at 10 µM (ACK; screening concentration 10 μM, read-out: ACK Inhibition % at indicated screening concentration): ≤ 35%; AMPKa1 or AMPKa2 Inhibition % at indicated screening concentration (AMPKa1 or AMPKa2; screening concentration 10 μM): E (E is ≦35%); inhibition at 10 µM (ERK5; screening concentration 10 μM, read-out: ERK5 Inhibition % at indicated screening concentration): 75 to 90%; ABL or ARG Inhibition % at indicated screening concentration (ABL or ARG; screening concentration 10 μM): E (E is ≦35%)
CN1C(=O)C2CCCCC2N(C)c2cc(NC3CCC(O)CC3)ncc21 (stereo not drawn) [Compound 76]	–	E (E is ≦35%)	≤ 35	≤ 35	≤ 35	≤ 35	E (E is ≦35%)	> 500	≤ 35	E (E is ≦35%)	–
CCOc1cc(Cl)ccc1Nc1cc2c(cn1)N(C)C(=O)c1ccccc1N2C [Compound 104]	–	E (E is ≦35%)	≤ 35	≤ 35	≤ 35	≤ 35	E (E is ≦35%)	> 500	35 to 50	E (E is ≦35%)	–
CCOc1cc(C(=O)O)ccc1Nc1cc2c(cn1)N(C)C(=O)c1ccccc1N2C [Compound 18, 4-(5,11-Dimethyl-10-oxo-10,11-dihydro-5H-benzo[e]pyrido[3,4-b][1,4]diazepin-3-ylamino)-3-ethoxybenzoic acid]	–	E (E is ≦35%)	≤ 35	≤ 35	≤ 35	≤ 35	E (E is ≦35%)	> 500	50 to 75	E (E is ≦35%)	–
CN1C(=O)C2CCCCC2N(C)c2cc(NC3CCC(N)CC3)ncc21 (stereo not drawn) [Compound 97]	–	E (E is ≦35%)	≤ 35	≤ 35	≤ 35	≤ 35	E (E is ≦35%)	> 500	≤ 35	E (E is ≦35%)	–
